In general, EC50 refers to the concentration at which the effect is half-maximal.

Structures are written as SMILES. “And” between values parts separate entries of the source, which are not always exact repeats. Equal entries are not always repeated.

The target of test [1] is T1, recombinant WT VCP (Mus musculus, UniProt Q01853).
T1 construct: in the full-length recombinant VCP; His (N); made in house; host or cells: Escherichia coli BL21-CodonPlus (DE3)-RIL
The experiment in a line: Kinase-Glo ATPase assay, recombinant WT VCP. It is filed as biochemical. The note with it: for ATP consumed: WT VCP no UN. The method, then: (§1) Experiments with varied activator concentration and screening were measured using the Kinase-Glo Luminescent Kinase Assay (Promega). Reactions were incubated at 25°C for 1 hour then reduced to 4°C in a thermocycler consisting of 50 nM of recombinant VCP with or without 50 nM UFD1/NPLOC4 in 50 uL ATPase buffer (25 mM HEPES, pH 7.5, 100 mM NaCl, 10 mM MgCl2) at 2% DMSO with 62.5 μM ATP and a range of activator concentrations (Gibco, Sigma-Aldrich). Equal volumes of reaction and Kinase-Glo reagent were incubated for 20 minutes at room temperature in a 96 well white flat bottom plate (Corning). Luminescence was measured in a microplate reader (Spark 20M, Tecan).
(§2) Experiments with varied compound concentration were fit to a 3-parameter dose curve with asymmetric profile likelihood 95% confidence intervals in GraphPad Prism 9 (GraphPad). Experiments with varied ATP concentration were fit to a Michaelis-Menten model with asymmetric profile likelihood 95% confidence intervals. Significance was determined for experiments with fixed compound or fixed ATP concentration using a linear mixed-effects model.
(Kinase-Glo measures the ATP left after a reaction by luminescence.)

Test [2] concerns the target T2, WT VCP + Ufd1/Nploc4 (Mus musculus, UniProt Q01853).
T2 construct: in the full-length recombinant VCP; His (N); made in house; host or cells: E. coli (VCP: BL21-CodonPlus (DE3)-RIL; UFD1 and NPLOC4: E. coli (DE3), purified by the MD Anderson core)
The experiment in a line: Kinase-Glo ATPase assay, WT VCP with UFD1/NPLOC4 (UN). The test is classed as biochemical. Conditions: for ATP consumed: WT VCP with UN. The protocol: as §1, §2

The target of test [3] is T1, recombinant WT VCP. The experiment in a line: MESG-PNP (EnzCheck) phosphate release ATPase assay, WT VCP. It is filed as biochemical. Conditions: for ATPase activity v0/ET: 25 μM compound, replicate experiments. The protocol:
(§3) All other experiments were performed using the EnzCheck phosphatase assay kit (Molecular Probes). ATPase activity was measured in a 96-well flat bottom plate (Thermo Fisher Scientific). 50 nM VCP was incubated in 100 μL ATPase buffer with 2% DMSO with 25 μM compound and various ATP concentrations. The absorbance at 360 ± 5 nm was measured for more than 15 minutes at 25°C. Phosphate release was quantified based on a phosphate standard curve performed on the same plate. Initial enzyme velocity was determined by fitting the linear portion of the data to a linear regression model.
as §2

The test system of test [4] is WT HeLa cells expressing GFP-TDP-4FL. The experiment in a line: Flow cytometry of GFP-TDP-4FL integrated fluorescence, WT HeLa. It is filed as cell-based. The note with it: for Integrated Fluorescence WT (Normalized to CHX): replicate values. The protocol:
Drug treatments were performed on neurons 7 days after lentiviral transduction and 14 days after neuronal induction. HeLa cells were collected using trypsin and pelleted at 1000g for 3 minutes. Cell pellets were resuspended in colorless DMEM (Invitrogen) supplemented with 2% FBS and filtered through a BD tube with cell strainer (BD Biosciences) for flow cytometry analysis on LSR II (BD Biosciences). Data analysis was performed on FlowJo v10 software. Integrated fluorescence intensity was determined by multiplying percent positive GFP and GFP median fluorescence values.

Test [5] has as its system luciferase. The experiment in a line: Luciferase counter assay: Kinase-Glo with 62.5 μM ATP without recombinant VCP. The test is classed as biochemical. Conditions: for measured ATP consumed (nmol) without VCP: replicate values. The protocol: as §1
(A-D) Measured ATP as determined by a Kinase-Glo assay of 62.5μM ATP in the presence of increasing concentrations of compound without recombinant VCP present. (for all panels: n=3 with 4 technical replicates per experiment, points are expressed as beta ± SE, linear mixed effects model, P>0.05 for each […]
(§4) (1 picture or pasted object on this page, not shown here)

Test [6] concerns the target T3, A232E VCP (Mus musculus, UniProt Q01853, A232E).
T3 construct: in the full-length recombinant VCP; His (N); made in house; host or cells: Escherichia coli BL21-CodonPlus (DE3)-RIL
The experiment in a line: MESG-PNP ATPase assay, recombinant A232E VCP. It is filed as biochemical. The note with it: VCP Mutation A232E; replicate values. The protocol:
as §3
(§5) Figure S8. VCP activators variable effect on ATPase activity of MSP associated mutations in recombinant VCP. ATPase activity of 50 nM recombinant VCP protein was measured using an MESG-PNP assay upon treatment with 25 μM compound versus 2% DMSO control at 1mM ATP for WT (also shown in Fig. 5c), A232E, R155H, and R159H (n=3 with 3 technical replicated per experiment; points are expressed as beta ± SE, linear effects model: *P<0.05,**P<0.01; ***P<0.001; ****P<0.0001).

Test [7] addresses T4, R155H VCP (Mus musculus, UniProt Q01853, R155H).
T4 construct: in the full-length recombinant VCP; His (N); made in house; host or cells: Escherichia coli BL21-CodonPlus (DE3)-RIL
The experiment in a line: MESG-PNP ATPase assay, recombinant R155H VCP. The test is classed as biochemical. Conditions: VCP Mutation R155H; replicate values. The protocol: as §3, §5

Test [8] has as its target T5, R159H VCP (Mus musculus, UniProt Q01853, R159H).
T5 construct: in the full-length recombinant VCP; His (N); made in house; host or cells: Escherichia coli BL21-CodonPlus (DE3)-RIL
The experiment in a line: MESG-PNP ATPase assay, recombinant R159H VCP. It is filed as biochemical. Conditions: VCP Mutation R159H; replicate values. The method, then:
as §3, §5

For test [9], the system named is WT HeLa cells expressing TDP-4FL. The experiment in a line: Immunofluorescence of TDP-4FL inclusion morphology, WT HeLa. It is filed as cell-based. The note with it: for TDP-4FL inclusion size and morphology upon proteasome inhibition: 4 μM MG132, 1 μM ixazomib or 1 μM epoxomicin, 3 or 6 hours. The protocol: HeLa Cells were plated onto glass coverslips and transfected with TDP-4FL using Fugene HD for 24 hours. Cells were fixed with 4% paraformaldehyde (Electron Microscopy Sciences), permeabilized with 0.1% Triton-X (Thermo Fisher Scientific), and blocked with 2% FBS DPBS. Primary antibodies were diluted in 2% FBS DPBS. Cells were stained with 300 nM DAPI, and coverslips were mounted onto glass slides using ProLong Glass Antifade Mountant (Thermo Fisher Scientific). Confocal images were obtained using a Leica TCS SPE laser scanning confocal microscope.
(A) High power magnification immunofluorescence confocal images of HeLa cells expressing TDP-4FL stained for myc-TDP (green) Scale bar, 5 µm. […]
(C) Representative confocal microscopy immunofluorescence confocal images of HeLa cells […]
yellow represent cells that were categorized as anisosome morphology. Nuclei outline in white represent cells that were categorized as aggregate morphology. Cells with approximately more than 50% anisosome inclusions were categorized as anisosome morphology whereas cells with approximately more than 50% aggregate-like inclusions were categorized as aggregate morphology. Binucleate cells were excluded from the total counts. Scale bar, 10 µm.
as §4

T4 sequence (Q01853 whole entry R155H): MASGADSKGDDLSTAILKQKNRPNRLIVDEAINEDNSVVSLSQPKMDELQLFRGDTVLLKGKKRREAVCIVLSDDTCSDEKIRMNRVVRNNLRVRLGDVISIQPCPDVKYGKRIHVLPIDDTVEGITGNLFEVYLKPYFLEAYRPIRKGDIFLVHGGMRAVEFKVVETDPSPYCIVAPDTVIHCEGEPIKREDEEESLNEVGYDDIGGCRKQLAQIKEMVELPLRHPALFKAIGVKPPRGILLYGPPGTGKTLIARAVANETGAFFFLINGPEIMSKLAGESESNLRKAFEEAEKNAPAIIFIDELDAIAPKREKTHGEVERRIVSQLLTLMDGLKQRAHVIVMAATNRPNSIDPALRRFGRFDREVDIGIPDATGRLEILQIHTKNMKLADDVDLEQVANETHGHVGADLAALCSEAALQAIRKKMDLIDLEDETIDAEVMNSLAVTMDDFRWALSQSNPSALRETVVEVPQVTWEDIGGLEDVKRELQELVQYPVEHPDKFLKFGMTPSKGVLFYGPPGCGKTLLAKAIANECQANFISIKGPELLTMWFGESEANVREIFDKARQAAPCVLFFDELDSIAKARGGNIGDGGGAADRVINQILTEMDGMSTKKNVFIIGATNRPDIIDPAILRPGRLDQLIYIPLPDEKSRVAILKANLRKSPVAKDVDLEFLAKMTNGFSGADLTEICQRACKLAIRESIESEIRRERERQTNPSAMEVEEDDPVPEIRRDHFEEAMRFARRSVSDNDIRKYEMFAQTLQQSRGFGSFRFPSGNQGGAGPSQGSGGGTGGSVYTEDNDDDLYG
T3 sequence (Q01853 whole entry A232E): as the sequence (Q01853 whole entry R155H) above, with H155R, A232E counted along it
T5 sequence (Q01853 whole entry R159H): as the sequence (Q01853 whole entry R155H) above, with H155R, R159H counted along it
T1 sequence (Q01853 whole entry): as the sequence (Q01853 whole entry R155H) above, with H155R counted along it
T2 sequence (Q01853 whole entry): as the sequence (Q01853 whole entry R155H) above, with H155R counted along it
T2 sequence (Q92890 whole entry partner): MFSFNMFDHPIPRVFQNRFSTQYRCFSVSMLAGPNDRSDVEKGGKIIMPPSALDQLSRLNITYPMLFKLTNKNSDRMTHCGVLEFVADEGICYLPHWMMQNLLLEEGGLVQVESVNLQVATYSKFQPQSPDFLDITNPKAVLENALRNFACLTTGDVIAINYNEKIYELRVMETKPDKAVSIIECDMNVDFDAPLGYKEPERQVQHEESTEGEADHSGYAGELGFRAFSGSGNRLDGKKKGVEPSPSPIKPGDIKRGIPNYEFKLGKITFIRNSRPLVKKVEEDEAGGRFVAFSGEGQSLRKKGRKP
T2 sequence (Q8TAT6 whole entry partner): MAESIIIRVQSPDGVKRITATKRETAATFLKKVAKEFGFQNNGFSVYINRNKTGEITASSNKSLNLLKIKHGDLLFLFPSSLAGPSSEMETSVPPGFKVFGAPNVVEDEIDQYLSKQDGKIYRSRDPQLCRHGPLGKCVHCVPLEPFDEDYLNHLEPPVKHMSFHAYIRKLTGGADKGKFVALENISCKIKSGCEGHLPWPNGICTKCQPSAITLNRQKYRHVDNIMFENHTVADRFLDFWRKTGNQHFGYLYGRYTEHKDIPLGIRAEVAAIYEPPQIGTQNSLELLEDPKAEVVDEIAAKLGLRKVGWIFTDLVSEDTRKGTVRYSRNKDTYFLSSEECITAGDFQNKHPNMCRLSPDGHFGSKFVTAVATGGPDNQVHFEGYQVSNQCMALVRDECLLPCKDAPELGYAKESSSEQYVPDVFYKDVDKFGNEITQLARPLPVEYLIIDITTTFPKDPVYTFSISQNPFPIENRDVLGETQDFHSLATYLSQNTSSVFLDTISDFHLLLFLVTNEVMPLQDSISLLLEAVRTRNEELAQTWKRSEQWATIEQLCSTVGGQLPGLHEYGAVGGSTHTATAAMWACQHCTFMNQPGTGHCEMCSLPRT

Regarding `Clc1ccc2[nH]c3c(N4CCC5(CC4)OCCO5)ncnc3c2c1` [UP158], the EC50 in test [1] (EC50 (μM) (95% CI), WT VCP without UN, 50 nM VCP, 62.5 μM ATP, 2% DMSO) was 2.41 µM; in [2] (WT VCP + Ufd1/Nploc4, 1:1 molar ratio), 14.3 µM. In addition, the “ATP consumed” value was 1.347 nmol and 0.994 nmol and 1.148 nmol in test [1] (0.78 μM compound); 1.354 nmol and 1.059 nmol and 1.210 nmol in test [1] (1.56 μM compound); 1.498 nmol and 1.151 nmol and 1.481 nmol in test [1] (3.13 μM compound); 1.483 nmol and 1.304 nmol and 1.494 nmol in test [1] (6.25 μM compound); 1.656 nmol and 1.339 nmol and 1.428 nmol in test [1] (12.5 μM compound); 1.637 nmol and 1.369 nmol and 1.624 nmol in [1] (25 μM compound). Moreover, the “ATP consumed” value was 1.715 nmol and 1.360 nmol and 1.703 nmol in test [1] (50 μM compound); 1.794 nmol and 1.361 nmol and 1.605 nmol in [1] (100 μM compound); 1.283 nmol and 1.271 nmol and 1.261 nmol in test [2] (1.56 μM compound); 1.368 nmol and 1.194 nmol and 1.381 nmol in test [2] (3.13 μM compound); 1.593 nmol and 1.386 nmol and 1.366 nmol in test [2] (6.25 μM compound); 1.674 nmol and 1.527 nmol and 1.645 nmol in test [2] (12.5 μM compound). The “ATP consumed” value in [2] (25 μM compound) is 1.721 nmol and 1.705 nmol and 1.784 nmol; in test [2] (50 μM compound), 1.865 nmol and 1.744 nmol and 1.853 nmol; in test [2] (100 μM compound), 1.867 nmol and 1.844 nmol and 1.895 nmol. Further, the “recombinant WT VCP ATPase activity” value in test [1] (in vitro validation of 106 screen hits) was “significantly increased”. In test [1] (maximum, WT VCP without UN), the “increase of VCP activity” value was found to be 50%. For the same molecule, in test [2], the “change in EC50 with UN compared to without UN” value is “significantly increased”. The “change in maximum percent activity with UN compared to without UN” value in test [2] is “stayed the same”. Also, in [3] (25 μM activator), the “kcat (nmol Pi / nmol VCP / s) (95% CI)” value is reported as 0.356 (0.320, 0.396) nmol Pi / nmol VCP / s. Moreover, in test [3] (25 μM activator, versus DMSO), the increase in kcat result was “more than 50%”. The “ATPase activity v0/ET” value in test [3] ([ATP] 62.5 μM) is 0.191 nmol Pi / nmol VCP / s and 0.186 nmol Pi / nmol VCP / s and 0.163 nmol Pi / nmol VCP / s; in [3] ([ATP] 125 μM), 0.237 nmol Pi / nmol VCP / s and 0.241 nmol Pi / nmol VCP / s and 0.210 nmol Pi / nmol VCP / s; in [3] ([ATP] 250 μM), 0.277 nmol Pi / nmol VCP / s and 0.260 nmol Pi / nmol VCP / s and 0.266 nmol Pi / nmol VCP / s; in test [3] ([ATP] 500 μM), 0.330 nmol Pi / nmol VCP / s and 0.296 nmol Pi / nmol VCP / s and 0.298 nmol Pi / nmol VCP / s; in test [3] ([ATP] 1000 μM), 0.372 nmol Pi / nmol VCP / s and 0.331 nmol Pi / nmol VCP / s and 0.333 nmol Pi / nmol VCP / s. In addition, the “Integrated Fluorescence WT (Normalized to CHX)” value in test [4] (5μM compound with CHX) was 0.937 and 0.971 and 1.133 and 0.982 and 1.082 and 0.863; in test [4] (20μM compound with CHX), 1.023 and 1.038 and 1.143 and 1.051 and 0.869 and 0.804. Further, the “clearance of GFP-TDP-4FL aggregates (integrated fluorescence)” value in test [4] (MG132, then CHX with 5 or 20 μM activator) is “did not have a significant effect”. Further, the “luciferase activity (measured ATP without VCP)” value in test [5] (62.5 μM ATP, increasing concentrations of compound) was “did not inhibit luciferase activity”. In addition, the “measured ATP consumed (nmol) without VCP” value is 3.401 nmol and 3.236 nmol and 3.539 nmol and 3.366 nmol and 3.357 nmol and 3.469 nmol and 3.543 nmol and 3.577 nmol and 3.421 nmol and 3.118 nmol and 3.388 nmol in test [5] (compound 6.25 μM); 3.307 nmol and 3.430 nmol and 3.284 nmol and 3.618 nmol and 3.378 nmol and 3.515 nmol and 3.417 nmol and 3.480 nmol and 3.503 nmol and 3.589 nmol and 3.525 nmol and 3.323 nmol in test [5] (compound 12.5 μM); 3.304 nmol and 3.386 nmol and 3.409 nmol and 3.378 nmol and 3.414 nmol and 3.361 nmol and 3.370 nmol and 3.512 nmol and 3.476 nmol and 3.518 nmol and 3.523 nmol and 3.257 nmol in test [5] (compound 25 μM); 3.338 nmol and 3.481 nmol and 3.508 nmol and 3.447 nmol and 3.274 nmol and 3.450 nmol and 3.266 nmol and 3.477 nmol and 3.478 nmol and 3.313 nmol and 3.466 nmol and 3.330 nmol in test [5] (compound 50 μM); 3.162 nmol and 3.374 nmol and 3.402 nmol and 3.401 nmol and 3.130 nmol and 3.262 nmol and 3.295 nmol and 3.438 nmol and 3.458 nmol and 3.582 nmol and 3.728 nmol and 3.332 nmol in test [5] (compound 100 μM). Besides, the “ATPase activity, nmol Pi / nmol VCP / s” value in test [6] is 1.493 nmol Pi / nmol VCP / s and 1.756 nmol Pi / nmol VCP / s and 2.037 nmol Pi / nmol VCP / s; in test [7], 1.189 nmol Pi / nmol VCP / s and 1.361 nmol Pi / nmol VCP / s and 1.473 nmol Pi / nmol VCP / s; in test [8], 1.332 nmol Pi / nmol VCP / s and 1.432 nmol Pi / nmol VCP / s and 1.240 nmol Pi / nmol VCP / s.
Take `Cc1cc2c(C(N)=O)cccc2n1-c1nc2c(c(NCc3ccccc3)n1)COCC2` [CB5083]: in test [9], the TDP-4FL aggregate formation result is “no effect on TDP-4FL aggregate formation” and the “TDP-4FL inclusion morphology after recovery” value is recorded as “residual irregularly shaped intranuclear TDP-4FL aggregates”.
On to `CC(C)C[C@H](NC(=O)CNC(=O)c1cc(Cl)ccc1Cl)B(O)O` [ixazomib], for which the “TDP-4FL inclusion size and morphology upon proteasome inhibition” value in [9] is “generating larger TDP-4FL inclusions”.
The same measure, in the same setting: as for `CC[C@H](C)[C@H](NC(=O)[C@H]([C@@H](C)CC)N(C)C(C)=O)C(=O)N[C@H](C(=O)N[C@@H](CC(C)C)C(=O)[C@@]1(C)CO1)[C@@H](C)O` [epoxomicin], the entry is “generating larger TDP-4FL inclusions”.

Source of the values: PMC11257039, “VCP activator reverses nuclear proteostasis defects and enhances TDP-43 aggregate clearance in multisystem proteinopathy models” (The Journal of Clinical Investigation, 2024).
